We go through ten molecules from ChEMBL document CHEMBL4425084, “Development of Heat Shock Protein (Hsp90) Inhibitors To Combat Resistance to Tyrosine Kinase Inhibitors through Hsp90-Kinase Interactions” (J Med Chem, 2016).

Data set [1] can be described thus: Toxicity in human H3255 cells expressing L858R EGFR mutant xenografted in mouse administered ip 3 times per week. The format is organism-based. Particulars: in vivo. Background: In xenograft studies the graft and the host belong to different species.
Data set [2] has as its target Bcr/Abl fusion protein (Homo sapiens, UniProt P00519, E255K). In words: Inhibition of imatinib-resistant BCR-ABL E255K mutant (unknown origin) expressed in mouse BA/F3 cells assessed as decrease in cell viability after 48 hrs by trypan blue exclusion assay. The format is cell-based.
In data set [3] the target is Bcr/Abl fusion protein (Homo sapiens, UniProt P00519, T315I). The data set is described as follows: Inhibition of imatinib-resistant BCR-ABL T315I mutant (unknown origin) expressed in mouse BA/F3 cells assessed as decrease in cell viability after 48 hrs by trypan blue exclusion assay. The class given is cell-based.
A short description of data set [4]: Toxicity in human H1975 cells xenografted in mouse administered ip 3 times per week. The format is organism-based. Particulars: in vivo.
Data set [5] addresses Bcr/Abl fusion protein (Homo sapiens, UniProt P00519). In words: Inhibition of BCR-ABL (unknown origin) expressed in mouse BA/F3 cells assessed as decrease in cell viability after 48 hrs by trypan blue exclusion assay. The class given is cell-based.
Data set [6] in a line: Toxicity in human H1650 cells expressing E746-A750 EGFR deletion mutant xenografted in mouse administered ip 3 times per week. The conditions noted are these: in vivo. The class given is organism-based.
In data set [7] the test system is A-375. In words: Cytotoxicity against human A375 cells assessed as decrease in cell viability after 72 hrs by CellTiter-Glo luminescence assay. The format is functional, cell-based. Particulars: A-375, 72 h.
The next data set concerns NCI-H3122. The data set is described as follows: Cytotoxicity against crizotinib-resistant human NCI-H3122 cells assessed as cell growth inhibition after 72 hrs by trypan blue exclusion assay. The format is functional. The conditions noted are these: NCI-H3122, 72 h.
Data set [8] has as its system Mus musculus. In words: In vivo inhibition of BCR-ABL/T315I mutant expressed in bone marrow cells transplanted in mouse assessed as level of cells expressing gatekeeper mutation at 50 mg/kg once every 2 days measured after 28 days. The class given is functional. Details: scale not given: the % may be the effect or the level left.
Another data set relates to GIST48. The data set is described as follows: Cytotoxicity against imatinib-resistant human GIST48 cells assessed as decrease in cell viability after 7 days by alamar blue assay. The format is functional, cell-based. Particulars: GIST48, 168 h. (In general: Resazurin is reduced to fluorescent resorufin, in cell work by metabolically active cells.)
The test system of a further data set is GIST430. The data set is described as follows: Cytotoxicity against imatinib-resistant human GIST430 cells assessed as decrease in cell viability after 7 days by alamar blue assay. The format is functional, cell-based. The conditions noted are these: GIST430, 168 h.
Data set [9] can be described thus: Toxicity in iv dosed NSCLC patient dosed weekly for 3 weeks on four week cycle during phase-1 clinical trial. The class given is organism-based. Particulars: human, in vivo, 504 h.
Data set [10] deals with Mus musculus. The data set is described as follows: In vivo inhibition of BCR-ABL/T315I mutant expressed in bone marrow cells transplanted in mouse assessed as level of cells expressing gatekeeper mutation at 100 mg/kg, bid measured after 15 days. The format is functional. Details: scale not given: the % may be the effect or the level left.
A further data set has as its system HCC827. The data set is described as follows: Cytotoxicity against gefitinib-resistant human HCC827 cells assessed as inhibition of cell proliferation by MTS assay. The class given is functional, cell-based. (In general: Formazan colour is commonly taken as a measure of viable cells.)
In the next data set the test system is PC-9. In words: Cytotoxicity against HGF-induced erlotinib-resistant human PC9 cells assessed as inhibition of cell growth after 72 hrs by MTT assay. The format is functional, cell-based. The conditions noted are these: PC-9, 72 h.
Data set [11] in a line: Cytotoxicity against HGF-induced erlotinib-resistant human Ma1 cells assessed as inhibition of cell growth after 72 hrs by MTT assay. The class given is functional, cell-based.
Data set [12] can be described thus: Cytotoxicity against human NB39 cells assessed as decrease in cell viability after 72 hrs by CellTiter-Glo luminescence assay. The conditions noted are these: NB39, 72 h.
The nature of data set [13]: Inhibition of E13;A20 EML4-ALK variant (unknown origin) expressed in human NCI-H3122 cells assessed as decrease in cell viability after 72 hrs by CellTiter-Glo luminescence assay. The format is cell-based. Particulars: NCI-H3122, 72 h.
Data set [14] in a line: Inhibition of E6a/b;A20 EML4-ALK (unknown origin) expressed in human NCI-H2228 cells assessed as decrease in cell viability after 72 hrs by CellTiter-Glo luminescence assay. Particulars: NCI-H2228, 72 h.
For data set [15], the system named is A-375. In words: animal or person. Particulars: Mus musculus, A-375, iv, read-out: TGI.
Description: Antitumor activity against vemurafenib-resistant human A375 cells xenografted in mouse assessed as tumor growth inhibition at 150 mg/kg, iv dosed as weekly treatment in presence of selumetinib
A short description of another data set: cells. The conditions noted are these: Homo sapiens, BaF3, 24 h.

pIC50: −log10 of the molar value.

As to `C=CCNC1=C2C[C@@H](C)C[C@H](OC)[C@H](O)[C@@H](C)/C=C(\C)[C@H](OC(N)=O)[C@@H](OC)/C=C\C=C(/C)C(=O)NC(=CC1=O)C2=O` [TANESPIMYCIN], the MTD in data set [1], in data set [4] and in [6] was 75 mg/kg each time. Also, the pIC50 (as a rule, −log10 of the IC50, conventionally taken in molar units) is 5.70 to 6.00 at Bcr/Abl fusion protein [2], 5.70 to 6.00 at Bcr/Abl fusion protein [3] and 5.30 on Bcr/Abl fusion protein [5].
`CCCS(=O)(=O)Nc1ccc(F)c(C(=O)c2c[nH]c3ncc(-c4ccc(Cl)cc4)cc23)c1F` [VEMURAFENIB]: the pIC50 in the data set on A-375 [7] was 7.09.
`C=CCNc1c(O)cc2c(O)c1C[C@@H](C)C[C@H](OC)[C@H](O)[C@@H](C)/C=C(\C)[C@H](OC(N)=O)[C@@H](OC)/C=C\C=C(/C)C(=O)N2.Cl` [RETASPIMYCIN HYDROCHLORIDE]: the 50% growth inhibitory concentration (GI50) (as a rule, the concentration that inhibits growth by half) with NCI-H3122 was 76 nM. In addition, the Activity with Mus musculus [8] was found to be 0.5%.
For `COC1=C2C[C@@H](C)C[C@H](OC)[C@H](O)[C@@H](C)/C=C(\C)[C@H](OC(N)=O)[C@@H](OC)/C=C\C=C(/C)C(=O)NC(=CC1=O)C2=O` [GELDANAMYCIN], the pIC50 at Bcr/Abl fusion protein [2] is 5.70 to 6.00; on Bcr/Abl fusion protein [3], 5.70 to 6.00; at Bcr/Abl fusion protein [5] it was 5.30.
With `CC(C)c1cc(C(=O)N2Cc3ccc(CN4CCN(C)CC4)cc3C2)c(O)cc1O` [ONALESPIB], the pIC50 in the data set on GIST48 is 7.26; in the data set on GIST430, 7.47. This molecule came in with an MTD in data set [9] of 260 mg/m2.
Take `Cc1ccc(NC(=O)c2ccc(CN3CCN(C)CC3)cc2)cc1Nc1nccc(-c2cccnc2)n1` [IMATINIB]: the Activity in the data set on Mus musculus [10] is listed as 81.5%.
For the molecule `CCNC(=O)c1noc(-c2cc(C(C)C)c(O)cc2O)c1-c1ccc(CN2CCOCC2)cc1` [LUMINESPIB], the pIC50 in the data set on HCC827 was 8.15.
With `CO[C@H]1/C=C\C=C(/C)C(=O)NC2=CC(=O)C(NCCN(C)C)=C(C[C@@H](C)C[C@H](OC)[C@H](O)[C@@H](C)/C=C(\C)[C@@H]1OC(N)=O)C2=O` [ALVESPIMYCIN], the pIC50 (in the data set on PC-9; in data set [11]) was 7.52 to 8.00 throughout.
Consider `CC(C)c1cc(-c2n[nH]c(=O)n2-c2ccc3c(ccn3C)c2)c(O)cc1O` [GANETESPIB], for which the pIC50 is 8.00 in [12]; 8.00 in data set [13]; 7.89 in data set [14]; 7.82 in the data set with A-375 [7]; 7.96 in “cells”. For the same molecule, the inhibition in vivo at 150 mg/kg in the data set with A-375 [15] was 84%.
For the molecule `C[C@@H](Oc1cc(-c2cnn(C3CCNCC3)c2)cnc1N)c1c(Cl)ccc(F)c1Cl` [CRIZOTINIB], the values for the pIC50 in [12], in data set [13] and in data set [14] were 6.62, 6.52 and 6.69, respectively.
